Assays:
[1] = system: SD rats; experiment: Respiratory depression in rats, arterial blood gas PCO2; format: in vivo
Description: (§1) 8-week-old male SD rats weighing 200 g-300 g were used as experimental animals to determine the effect of the compound of Example H05, the compound of Example H08, the compound of Example H10, the compound of Example H16, the compound of Example H17, the compound of Example H18, the compound of Example H21, and the compound of Example H24 on the partial pressure of blood in rats after intravenous administration. The effects of the compounds of the invention on respiratory depression were investigated.
After the rats were acclimatized to the experimental environment for 3 days, each animal was anesthetized with sodium pentobarbital (50-60 mg/kg, ip), and then the right common carotid artery was isolated and the unilateral carotid artery tube-bury surgery was performed (PE60, ID*OD*length as 0.76 mm*1.22 mm*20 cm, buried into the artery 1 cm deep, and the tube was filled with heparin sodium tube sealing solution).

[2] = molecular target: T1, β-arrestin signaling pathway of MOR (Homo sapiens, UniProt P35372); experiment: cell-based; conditions: PathHunter HEK293 cells, relative to endorphin MAX control
T1 construct: host or cells: HEK293 (PathHunter cell line)

[3] = molecular target: T2, μ opioid receptor (MOR) (Homo sapiens, UniProt P35372); experiment: cell-based; conditions: HEK293 stably expressing μ opioid receptor, FLIPR calcium
T2 construct: host or cells: HEK293
Method: The purpose of the experiment was to test the agonistic effects of the compounds of the present invention on μ opioid receptor (MOR), κ opioid receptor (KOR) and δ opioid receptor (DOR), and to evaluate in vitro activity of the compounds according to the half-maximal effect concentration (EC50).
This test was performed using HEK293 cell lines (the stably expressed cell lines were provided by WuXi AppTec) which stably expressed μ opioid receptor, δ opioid receptor or κ opioid receptor respectively. […] The cells were centrifuged at 1000 rpm for 5 minutes at room temperature to precipitate. The supernatant was sucked out, be careful not to suck out cells. The precipitate was flicked into the loose cells and resuspend in 45 ml DMEM medium. The Vi-CELL XR automatic cell viability detector (BECKMAN COULTER) was used to count the cells, and the cell concentration was adjusted to 10×10^5 cells/ml based on the counting results.
Preparation of probenecid mother solution: 1 ml of FLIPR test solution was added to 77 mg probenecid to prepare a 250 mM solution. The solution was freshly prepared just before use.
The solution was freshly prepared just before use.
The cell plate prepared above was removed from the incubator and 20 ul 2× Fluo-4 Direct™ buffer was added thereto. The final volume in the cell plate was […]. The plate was incubated at 37° C., under 5% CO2 for 50 minutes, and incubated at room temperature for 10 minutes, then was placed into the FLIPR instrument (MD), and the compound plate and pipette box was placed into. The protocol was run on the […] platform, 10 μl of positive drug or the test compound was transfered to the cell plate from the compound plate, and the fluorescent signal was read.
The signal value generated by each well was calculated, and the calculation formula was that: the activity %=(signal value of the test compound−signal value of the solvent)/(signal value of the positive drug−signal value of the solvent).

[4] = system: rat surgical incision injury model; experiment: Rat surgical incision injury model, von Frey paw withdrawal threshold; format: in vivo, SD rats; conditions: rats, intravenous 0.3 mg/kg
Description: as §1, with “H02,” for “H05,”, “H04,” for “H08,”, “H21” for “H21,”, “surgical pain” for “the partial pressure of blood”, “analgesic effect” for “effects”, “was discussed.” for “of the invention on respiratory depression were investigated.”
A certain amount of the compounds or TRV130 (MCE, 15150) was weighed, and dissolved in ethanol/castor oil/water=10/10/80 as a clear and transparent solution.
Three days after the rats were acclimatized to the experimental environment, the preoperative base value was determined, and followed by the surgical pain operation described below, about 24 hours after the surgery, the basic value was measured before administration on all animals, and mechanically hypersensitive animals (the paw withdrawal threshold (PWT) was less than 5 g) was randomly assigned to each administration group according to PWT. The pain threshold was determined 30 minutes and 60 minutes after intravenous administration of the positive drug TRV130 or each compound of the present invention (at a dose of 0.3 mg/kg).
The surgical procedure was performed aseptically, and the surgical instruments (scissors, tweezers, scalpels, surgical cotton and sutures) were sterilized before surgery. The animals were anesthetized with sodium pentobarbital (50 mg/kg, injected intraperitoneally), and the toes of the animals were squeezed to confirm that the animals were completely anesthetized before surgery. From the position of 0.5 cm away from the heel, an incision about 1 cm was made in the longitudinal direction of the toe. After cutting the skin, the musculus flexor digitorum brevis was raised and a blunt injury was caused longitudinally. After pressing to stop bleeding, the wound was sutured. When the animal was completely awake (free to move), the animal was put back into the cage (the reference of the construction of surgical pain model: Timothy J. Brennan, Erik P. Vandermeulen, G. F. Gebhart. Characterization of a rat model of incisional pain. Pain, 64(1996):493-501).
An up-down method was used for the determination of pain sensitivity. The mechanical pain results were expressed as animal paw withdrawal response threshold (PWT). The rat was placed separately in a plexiglass box with a mesh at the bottom of the box to ensure that the rat's feet could be tested. The rat was acclimatized for 15 minutes before the test, and after the acclimatization, the test fiber (von frey fiber, West coast) was used to test in the middle part of the hind foot of the rat. The test fibers included 8 test strengths: 3.61 (0.4 g), 3.84 (0.6 g), 4.08 (1 g), 4.31 (2 g), 4.56 (4 g), 4.74 (6 g), 4.93 (8 g), and 5.18 (15 g). During the test, the test fiber was pressed vertically against the skin and a force was applied to bend the fiber for 6-8 seconds, at an interval of 5 seconds between each test. During the test, the animal's rapid withdrawal was recorded as a pain response. When the test fiber left the animal's skin, the animal's withdrawal was also recorded as a pain response. Starting from 2 g, depending on whether the rats had any pain response, the test was changed into the next test intensity or the previous test intensity. A series of responses of the rats to different test intensities were recorded. […] Wherein, Xf was the logarithmic value of von Frey fiber used in the last test, and K value was the animal withdrawal reaction mode (recorded during the test), which was the value obtained after looking up the table according to the obtained sequence of “X” and “O”, δ=Mean of logarithmic difference between von Frey fibers used in the test.

[5] = molecular target: T3, cAMP pathway of MOR receptor (Homo sapiens, UniProt P35372); experiment: cell-based; conditions: cAMP Hunter HEK293 cells, forskolin-induced cAMP; read-out: EC50 of cAMP levels affected by agonistic effect on MOR
T3 construct: host or cells: HEK293 (cAMP Hunter cell line)
Description: The purpose of this experiment was to test the agonistic effect of the compounds of the invention on the cAMP pathway of MOR and to evaluate the in vitro activity of the compounds according to EC50.
In this experiment, HitHunter cAMP Assay EFC technology of DiscoverX was used to measure the cAMP level in cells and monitor the functional status of G-protein coupled receptors (GPCRs).
The amount of signal produced was directly proportional to the amount of cAMP in the cell.
The MOR receptor was bound to the inhibitory Gαi protein, so forskolin (for inducing cAMP signal) was used to induce cAMP expression in the experiment, and the inhibitory effect of the compounds on the above induction was measured.
The cAMP Hunter cell line (HEK293, DiscoverX) was removed from the freezer and expanded according to the Cell Standard Operating Procedure (SOP), 20 μL was collected and inoculated into a 384-well microplate and incubated at 37° C. overnight.
The HitHunter cAMP Assay test kit (DiscoverX, 90-0075sm) was used, the kit contained cAMP buffer, cAMP detection solution, and cAMP working solution A.
The formula was used to calculate the percentage of signal activity per well=100%×(1−(average RLU of the test samples−average RLU of the MAX controls)/(average RLU of the solvent controls−average RLU of the MAX controls)). wherein, the MAX control referred to the fluorescence signal value of the endorphin solution, and the solvent control referred to the fluorescence signal value of DMSO. The DiscoveRx CBIS data analysis workstation (ChemInnovation, CA) was used to perform statistical analysis of the percentage of signal activity and the concentration of the compounds by the agonist formula (comes with the software, universal) to calculate the EC50 value.

T1 sequence (P35372 whole entry): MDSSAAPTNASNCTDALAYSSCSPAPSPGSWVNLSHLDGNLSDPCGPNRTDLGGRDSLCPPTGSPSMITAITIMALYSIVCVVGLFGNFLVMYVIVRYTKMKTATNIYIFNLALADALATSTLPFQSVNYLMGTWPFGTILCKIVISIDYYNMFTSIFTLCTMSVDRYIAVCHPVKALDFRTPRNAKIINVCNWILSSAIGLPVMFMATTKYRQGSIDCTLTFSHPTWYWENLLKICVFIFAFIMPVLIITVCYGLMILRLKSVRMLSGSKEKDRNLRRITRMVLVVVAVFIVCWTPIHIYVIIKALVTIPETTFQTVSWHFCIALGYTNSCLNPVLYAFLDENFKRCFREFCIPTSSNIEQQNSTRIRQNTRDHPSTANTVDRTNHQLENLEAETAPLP
T2 sequence (P35372 whole entry, species assumed): as the sequence (P35372 whole entry) above
T3 sequence (P35372 whole entry): as above

Cc1cc(F)cnc1C1(CCNCc2ccccc2OC(F)(F)F)CCOC2(CCCC2)C1 (stereo not shown) [Example H10, (2-trifluoromethoxybenzyl)-[2-(9-(3-methyl-5-fluoropyridin-2-yl)-6-oxaspiro[4.5]decan-9-yl)ethyl]amine]
PCO2, 5 min before administration ([1]; arterial blood, before administration): 35.72 ± 1.88 mmHg
PCO2, 5 min after administration ([1]; intravenous single dose 0.3 mg/kg (morphine 24 mg/kg), 5 min): 37.48 ± 1.94 mmHg
PCO2, 30 min after administration ([1]; intravenous single dose 0.3 mg/kg (morphine 24 mg/kg), 30 min): 35.03 ± 1.89 mmHg
PCO2, 60 min after administration ([1]; intravenous single dose 0.3 mg/kg (morphine 24 mg/kg), 60 min): 36.27 ± 1.67 mmHg
PCO2, 120 min after administration ([1]; intravenous single dose 0.3 mg/kg (morphine 24 mg/kg), 120 min): 36.83 ± 1.85 mmHg
Emax [2]: 3.7%
EC50 [3]: 2.15 nM
50% PWT, 30 min after administration ([4]; 30 min): 8.05 ± 0.24 g
50% PWT, 60 min after administration ([4]; 60 min): 7.59 ± 1.02 g
EC50 [5]: 2.89 nM

From patent US11072601B2, “μ-opioid receptor agonist and preparation method therefor and use thereof in field of medicine” (SHANGHAI SYNERGY PHARMACEUTICAL SCIENCES CO., LTD., priority 2017, dated 2021)
